Organism: Rattus norvegicus
Assay: Open TG-GATES - Regimen: Daily Repeat
Type: toxicity, organism-based, Sprague-Dawley
Design: regimen Daily Repeat, gender Male, age 6 weeks
Settings: in vivo, po, 30 mg/kg, route gavage, dose level Low; for APTT / Bas / Eos / Fbg / Hb / Ht / Lym / MCH / MCHC / MCV / Mono / Neu / PT / Plat / RBC / Ret / WBC: tissue Blood
[1] = 72 h, tissue Kidney, time 3 day
[2] = 72 h, tissue Plasma, time 3 day

Work on `CCOC(=O)C(C)(C)Oc1ccc(Cl)cc1` [CLOFIBRATE] yielded a TERMINAL_BW (72 h, time 3 day) of 242 g, an APTT (72 h, time 3 day) of 20.9 s and a Bas (72 h, time 3 day) of 0%. The Eos (72 h, time 3 day) was 1%, the Fbg (72 h, time 3 day) was 226 mg/dL and the Hb (72 h, time 3 day) was 13.3 g/dL. For the same compound, the Ht (72 h, time 3 day) was 38%, the Lym (72 h, time 3 day) was 80.8% and the MCH (72 h, time 3 day) was 21.4 pg. It also gave an MCHC (72 h, time 3 day) of 35%, an MCV (72 h, time 3 day) of 61.1 fL and a Mono (72 h, time 3 day) of 3.2%. The Neu (72 h, time 3 day) was 15%, the PT (72 h, time 3 day) was 12.5 s and the Plat (72 h, time 3 day) was 131.1 x10_4/uL. It also gave an RBC (72 h, time 3 day) of 622.4 x10_4/ul, a Ret (72 h, time 3 day) of 5% and a WBC (72 h, time 3 day) of 108.6 x10_2/uL. The KIDNEY_L [1] was 1 g, the KIDNEY_R [1] was 1 g and the KIDNEY_TOTAL [1] was 2.1 g. The LIVER (72 h, tissue Liver, time 3 day) was 12 g, the A/G [2] was 1.6 and the ALP [2] was 1135 IU/L. It also gave an ALT [2] of 42.4 IU/L, an AST [2] of 72.2 IU/L and a BUN [2] of 14.8 mg/dL. For the same compound, the CRE [2] was 0.4 mg/dL, the Ca [2] was 10.9 mg/dL and the Cl [2] was 102 meq/L. The DBIL [2] was 0.098 mg/dL, the GLC [2] was 200.8 mg/dL and the IP [2] was 6.3 mg/dL. The K [2] was 4 meq/L, the LDH [2] was 265.2 IU/L and the Na [2] was 140.2 meq/L. It also gave a PL [2] of 141 mg/dL, an RALB [2] of 3.4 g/dL and a TBIL [2] of 0.1 mg/dL. It also gave a TC [2] of 67.6 mg/dL, a TG [2] of 112.2 mg/dL and a TP [2] of 5.6 g/dL. It also gave a gamma-GTP [2] of 0.6 IU/L, a TERMINAL_BW ([…], time 7 day) of 265.8 g and a TERMINAL_BW ([…], time 14 day) of 333.8 g. The TERMINAL_BW ([…], time 28 day) was 411.4 g, the APTT ([…], time 7 day) was 20.2 s and the Bas ([…], time 7 day) was 0%. The Eos ([…], time 7 day) was 0.8%, the Fbg ([…], time 7 day) was 223.4 mg/dL and the Hb ([…], time 7 day) was 14.1 g/dL. The Ht ([…], time 7 day) was 39.7%, the Lym ([…], time 7 day) was 82% and the MCH ([…], time 7 day) was 21.9 pg. The MCHC ([…], time 7 day) was 35.5%, the MCV ([…], time 7 day) was 61.6 fL and the Mono ([…], time 7 day) was 2.6%. The Neu ([…], time 7 day) was 14.2%, the PT ([…], time 7 day) was 12 s and the Plat ([…], time 7 day) was 124.1 x10_4/uL. For the same compound, the RBC ([…], time 7 day) was 643.8 x10_4/ul, the Ret ([…], time 7 day) was 4.4% and the WBC ([…], time 7 day) was 88.1 x10_2/uL. It also gave an APTT ([…], time 14 day) of 20.1 s, a Bas ([…], time 14 day) of 0% and an Eos ([…], time 14 day) of 1%. It also gave a Fbg ([…], time 14 day) of 219.4 mg/dL, a Hb ([…], time 14 day) of 13.9 g/dL and a Ht ([…], time 14 day) of 40.8%. For the same compound, the Lym ([…], time 14 day) was 78.4%, the MCH ([…], time 14 day) was 20 pg and the MCHC ([…], time 14 day) was 34%. For the same compound, the MCV ([…], time 14 day) was 58.9 fL, the Mono ([…], time 14 day) was 3.2% and the Neu ([…], time 14 day) was 17.2%. The PT ([…], time 14 day) was 12.3 s, the Plat ([…], time 14 day) was 131 x10_4/uL and the RBC ([…], time 14 day) was 694.6 x10_4/ul. For the same compound, the Ret ([…], time 14 day) was 4.8%, the WBC ([…], time 14 day) was 146.7 x10_2/uL and the APTT ([…], time 28 day) was 20.8 s. For the same compound, the Bas ([…], time 28 day) was 0%, the Eos ([…], time 28 day) was 1% and the Fbg ([…], time 28 day) was 222 mg/dL. It also gave a Hb ([…], time 28 day) of 14.8 g/dL and a Ht ([…], time 28 day) of 42.7%.

Reference: ChEMBL document CHEMBL3885861, “Open TG-GATES”
